From ChEMBL document CHEMBL1201862, “PubChem BioAssay data set” (2004)
Activity calls are given as the source filed them.

Tests used:
[1] = biological target: Intestinal-type alkaline phosphatase (Mus musculus, UniProt P24822); assay: PubChem AID 488785; assay type: functional
[2] = biological target: T1, Sentrin-specific protease 6 (Homo sapiens, UniProt Q9GZR1); assay: SAR Analysis of small molecule inhibitors of Sentrin-specific protease 6 (SENP6) using a Luminescent assay. [Related pubchem assays (depositor defined):AID2582, AID2599]; assay type: functional
T1 sequence (Q9GZR1 whole entry): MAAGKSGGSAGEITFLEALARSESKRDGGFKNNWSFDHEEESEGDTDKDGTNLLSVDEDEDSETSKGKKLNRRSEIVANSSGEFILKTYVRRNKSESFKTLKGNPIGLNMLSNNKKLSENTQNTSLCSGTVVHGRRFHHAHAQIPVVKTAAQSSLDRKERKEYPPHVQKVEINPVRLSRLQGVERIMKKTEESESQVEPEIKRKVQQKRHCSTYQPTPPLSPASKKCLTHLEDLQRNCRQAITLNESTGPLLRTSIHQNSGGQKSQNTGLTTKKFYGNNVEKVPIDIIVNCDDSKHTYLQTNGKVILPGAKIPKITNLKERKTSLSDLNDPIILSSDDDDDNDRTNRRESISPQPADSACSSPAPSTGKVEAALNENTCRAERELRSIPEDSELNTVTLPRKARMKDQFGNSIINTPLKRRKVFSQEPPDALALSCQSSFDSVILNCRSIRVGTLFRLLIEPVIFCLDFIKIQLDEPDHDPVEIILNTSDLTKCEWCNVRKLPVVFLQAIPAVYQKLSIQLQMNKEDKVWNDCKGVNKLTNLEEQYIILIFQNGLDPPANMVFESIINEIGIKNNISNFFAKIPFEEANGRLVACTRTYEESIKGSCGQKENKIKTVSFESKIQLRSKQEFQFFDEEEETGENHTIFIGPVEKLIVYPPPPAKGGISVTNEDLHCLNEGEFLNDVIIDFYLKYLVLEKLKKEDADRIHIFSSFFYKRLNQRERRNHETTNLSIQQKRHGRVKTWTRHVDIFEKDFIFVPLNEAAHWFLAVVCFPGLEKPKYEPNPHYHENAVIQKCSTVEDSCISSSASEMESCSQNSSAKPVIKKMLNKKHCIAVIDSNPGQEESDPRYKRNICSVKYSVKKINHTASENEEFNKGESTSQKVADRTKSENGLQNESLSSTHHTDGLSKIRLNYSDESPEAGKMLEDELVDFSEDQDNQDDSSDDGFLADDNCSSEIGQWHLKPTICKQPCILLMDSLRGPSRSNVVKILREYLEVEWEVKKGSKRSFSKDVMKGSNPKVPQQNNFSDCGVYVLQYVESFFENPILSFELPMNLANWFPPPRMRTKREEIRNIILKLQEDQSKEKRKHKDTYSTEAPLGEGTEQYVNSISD

[3] = luciferase reporter signal suppression in cells – H4 neuroglioma cells, luminescence, dose response (AID 1990); assay type: functional, cell-based
[4] = biological target: T2, Zinc finger protein mex-5 (Caenorhabditis elegans, UniProt Q9XUB2); assay: potency of MEX-5 RNA-binding blockers – biochemical, C. elegans, fluorescence polarization, dose response (AID 1960)
T2 sequence (Q9XUB2 whole entry): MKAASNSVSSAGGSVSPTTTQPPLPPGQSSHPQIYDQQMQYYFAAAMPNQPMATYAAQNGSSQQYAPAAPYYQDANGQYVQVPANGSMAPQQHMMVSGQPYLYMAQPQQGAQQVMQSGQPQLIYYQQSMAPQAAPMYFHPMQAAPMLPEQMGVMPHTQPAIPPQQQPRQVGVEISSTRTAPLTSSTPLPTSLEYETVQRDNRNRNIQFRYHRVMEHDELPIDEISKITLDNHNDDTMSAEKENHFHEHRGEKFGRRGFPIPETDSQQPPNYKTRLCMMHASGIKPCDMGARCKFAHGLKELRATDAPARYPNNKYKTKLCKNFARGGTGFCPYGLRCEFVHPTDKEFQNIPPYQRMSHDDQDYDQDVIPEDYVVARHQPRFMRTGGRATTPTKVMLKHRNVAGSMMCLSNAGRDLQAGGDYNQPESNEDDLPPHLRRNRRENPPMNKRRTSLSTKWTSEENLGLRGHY

[5] = alpha-synuclein stem-loop luciferase translation blockers – H4 neuroglioma cells, luminescence, confirmation (AID 1988); assay type: functional, cell-based
[6] = biological target: T3, Replicative DNA helicase DnaB (Mycobacterium tuberculosis, UniProt P9WMR3); assay: DnaB intein splicing inhibitors, dose response, biochemical, cell-free fluorescence (AID 449749); assay type: functional
T3 sequence (P9WMR3 whole entry): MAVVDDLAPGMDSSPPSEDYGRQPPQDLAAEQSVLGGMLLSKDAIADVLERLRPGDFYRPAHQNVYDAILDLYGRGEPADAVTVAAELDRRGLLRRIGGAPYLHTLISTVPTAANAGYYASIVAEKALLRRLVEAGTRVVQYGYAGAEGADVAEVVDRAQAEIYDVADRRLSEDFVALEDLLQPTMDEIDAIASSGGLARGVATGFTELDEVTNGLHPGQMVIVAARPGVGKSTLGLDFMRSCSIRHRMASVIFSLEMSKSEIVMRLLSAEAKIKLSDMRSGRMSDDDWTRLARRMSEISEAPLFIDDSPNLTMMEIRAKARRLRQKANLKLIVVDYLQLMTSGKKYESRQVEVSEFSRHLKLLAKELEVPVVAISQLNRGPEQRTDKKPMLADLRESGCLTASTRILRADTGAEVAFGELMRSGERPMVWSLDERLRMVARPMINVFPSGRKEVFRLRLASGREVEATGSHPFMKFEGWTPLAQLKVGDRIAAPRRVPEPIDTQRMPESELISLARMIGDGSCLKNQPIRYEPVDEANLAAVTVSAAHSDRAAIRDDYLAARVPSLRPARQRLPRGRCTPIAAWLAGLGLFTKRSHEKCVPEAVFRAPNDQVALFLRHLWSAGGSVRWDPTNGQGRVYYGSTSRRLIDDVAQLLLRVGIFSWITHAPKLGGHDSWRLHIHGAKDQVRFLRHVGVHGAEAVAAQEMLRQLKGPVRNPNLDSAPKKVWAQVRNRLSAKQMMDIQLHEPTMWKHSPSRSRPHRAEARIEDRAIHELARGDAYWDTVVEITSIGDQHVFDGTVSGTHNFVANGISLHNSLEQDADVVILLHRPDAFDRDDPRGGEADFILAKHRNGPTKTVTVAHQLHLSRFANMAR

[7] = cytotoxicity toward HCT116 cells – cell-based, CellTiter-Glo luminescence, IC50, dose response (AID 1117332); assay type: functional; settings: HCT-116

Intestinal-type alkaline phosphatase, sequence (P24822 whole entry): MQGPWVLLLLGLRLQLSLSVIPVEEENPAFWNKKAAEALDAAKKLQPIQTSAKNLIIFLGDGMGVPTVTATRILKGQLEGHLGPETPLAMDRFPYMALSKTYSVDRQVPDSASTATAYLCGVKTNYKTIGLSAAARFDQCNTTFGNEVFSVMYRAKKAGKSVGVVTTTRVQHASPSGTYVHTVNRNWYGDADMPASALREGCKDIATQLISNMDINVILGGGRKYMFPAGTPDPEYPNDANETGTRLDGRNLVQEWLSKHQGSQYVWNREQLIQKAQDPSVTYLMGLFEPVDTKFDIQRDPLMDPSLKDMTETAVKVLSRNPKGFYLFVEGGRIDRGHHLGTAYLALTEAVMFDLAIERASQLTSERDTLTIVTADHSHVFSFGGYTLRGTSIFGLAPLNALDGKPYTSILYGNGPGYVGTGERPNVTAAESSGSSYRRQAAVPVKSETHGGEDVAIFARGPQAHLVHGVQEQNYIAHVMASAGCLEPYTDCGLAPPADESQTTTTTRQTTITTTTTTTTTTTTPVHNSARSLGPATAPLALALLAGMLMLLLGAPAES

Oc1ccc(/C=N/Nc2cc(N3CCCC3)nc(N3CCCC3)n2)cc1O
active: IC50 [1] 1.51 µM | IC50 [2] 10.5 µM

Cc1cc2nc3ccc(N(C)C)cc3[s+]c2cc1N [TOLONIUM CHLORIDE]
active: EC50 [3] 8.36 µM | EC50 [4] 35.6 µM | EC50 [5] 7.13 µM | AC50 [6] 77.1 µM | IC50 [7] 2.78 µM
